From paper PMC5310970 (Journal of photochemistry and photobiology. B, Biology, 2016)
pKi: −log10 of the molar value.

Biological target: Prostate-specific membrane antigen (PSMA) (Homo sapiens, UniProt Q04609)
Assay: fluorescence-based NAALADase inhibition assay
Format: biochemical

Sequence of Prostate-specific membrane antigen (PSMA) (Q04609 whole entry): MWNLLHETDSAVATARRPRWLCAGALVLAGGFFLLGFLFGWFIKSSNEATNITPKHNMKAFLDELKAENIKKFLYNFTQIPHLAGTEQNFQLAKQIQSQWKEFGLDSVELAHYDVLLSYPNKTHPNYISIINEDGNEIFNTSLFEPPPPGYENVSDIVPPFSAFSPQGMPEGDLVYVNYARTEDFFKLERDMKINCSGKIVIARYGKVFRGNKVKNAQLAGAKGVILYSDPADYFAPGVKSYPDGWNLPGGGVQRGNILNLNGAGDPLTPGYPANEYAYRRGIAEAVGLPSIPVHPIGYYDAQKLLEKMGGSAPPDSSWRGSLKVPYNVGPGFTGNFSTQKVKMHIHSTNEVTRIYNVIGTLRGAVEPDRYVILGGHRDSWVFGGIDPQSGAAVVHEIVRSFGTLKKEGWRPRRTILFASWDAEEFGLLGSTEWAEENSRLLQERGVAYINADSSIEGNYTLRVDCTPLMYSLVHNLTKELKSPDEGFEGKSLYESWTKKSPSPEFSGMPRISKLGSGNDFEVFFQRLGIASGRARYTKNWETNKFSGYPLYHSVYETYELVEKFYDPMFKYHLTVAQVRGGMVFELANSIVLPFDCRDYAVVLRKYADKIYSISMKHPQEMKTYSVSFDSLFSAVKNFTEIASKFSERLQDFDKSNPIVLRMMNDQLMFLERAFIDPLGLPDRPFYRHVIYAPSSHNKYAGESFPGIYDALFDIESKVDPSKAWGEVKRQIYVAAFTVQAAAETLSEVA

YC-9
pKi: 9.70
